# Assays:
# KRAS (G12D)/SOS1 = biological target: T1, KRAS (G12D)/SOS1 (Homo sapiens, UniProt P01116, G12D); test: KRAS (G12D)/SOS1 homogeneous time-resolved fluorescence (HTRF) assay; assay type: binding; conditions: absence of GTP, 4° C. for 3 hr
# T1 construct: purchased Cisbio 63ADK000CB17PEH
# Experimental: 3-fold serial dilutions of each test compound were prepared ranging from 20 μM to 1.02 nM. The test compound was mixed and incubated with reaction components, incubated in a sealed plate at 4° C. for 3 hr and fluorescence was measured using a PerkinElmer Envision plate reader. […]
# [1] = test system: AGS gastric carcinoma cells [heterozygous G12D]; test: Cancer cell line proliferation (CellTiter-Glo), AGS; assay type: cell-based; conditions: Homo sapiens, 72 hr, read-out: CTG(IC50), ABS-72 H(nM) AGS
# Experimental: (§1) The following cancer cell lines were employed: AGS gastric carcinoma [heterozygous G12D] (ATCC, CRL-1739); A-427 lung carcinoma [heterozygous G12D] (ATCC, HTB-53); ASPC1 pancreatic adenocarcinoma [homozygous G12D] (ATCC, CRL-1682) and SW1990 pancreatic adenocarcinoma [homozygous G12D] (ATCC CRL-2172). Cell lines were cultured essentially according to ATCC recommendations.
# (§2) AGS, A-427, ASPC1, SW1990, and GP2D cells were plated in 96-well tissue culture plates at 4,000 cells/well and incubated at 37° C./5% CO2 for 72 hr in 100 μl of media. 3-fold serial dilutions of each test compound were prepared ranging from 20 μM to 1.02 nM. Each cell line was then treated with test compounds at various concentrations with a final concentration of 0.5% DMSO/well, and then incubated at 37° C./5% CO2 for 72 hr. 100 μl of CellTiter-Glo® Reagent (Promega Corporation, Madison, WI) was added to each well and processed according manufacturer's protocol. Results were analyzed and IC50 5 values were calculated in GraphPad 7 software.
# [2] = test system: A-427 lung carcinoma cells [heterozygous G12D]; test: Cancer cell line proliferation (CellTiter-Glo), A-427; assay type: cell-based; conditions: Homo sapiens, A427 cells, 72 hr, read-out: CTG(IC50), ABS-72 H(nM) A427
# Experimental: as §1, §2
# [3] = test system: ASPC1 pancreatic adenocarcinoma cells [homozygous G12D]; test: Cancer cell line proliferation (CellTiter-Glo), ASPC1; assay type: cell-based; conditions: Homo sapiens, ASPC-1 cells, 72 hr, read-out: CTG(IC50), ABS-72 H(nM) ASPC-1
# Experimental: as §1, §2
# [4] = test system: SW1990 pancreatic adenocarcinoma cells [homozygous G12D]; test: Cancer cell line proliferation (CellTiter-Glo), SW1990; assay type: cell-based; conditions: Homo sapiens, 72 hr, read-out: CTG(IC50), ABS-72 H(nM) SW1990
# Experimental: as §1, §2
# [5] = Oral bioavailability in CD-1 mice; conditions: male, CD-1, mouse, blood
# Experimental: CD-1 mice were randomly assigned to 6 groups with 3 male mice in each compound group. […] Compounds were orally administered (PO) in a single dose to each mouse in its group. Blood samples were taken within 72 hours. Bioavailability (F %) was determined and by liquid chromatography-mass spectrometry (LC-MS/MS).
# T1 sequence (P01116 1-188 isoform P01116-2 G12D): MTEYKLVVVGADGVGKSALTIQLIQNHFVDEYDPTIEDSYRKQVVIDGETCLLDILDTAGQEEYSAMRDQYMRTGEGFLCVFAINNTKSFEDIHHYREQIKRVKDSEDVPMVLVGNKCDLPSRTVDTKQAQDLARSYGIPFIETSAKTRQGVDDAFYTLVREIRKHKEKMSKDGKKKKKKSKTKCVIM
Compound,IC50 (KRAS (G12D)/SOS1),IC50 [1],IC50 [2],IC50 [3],IC50 [4],bioavailability ([5]; 25 mg/kg),bioavailability [5]
"C#Cc1c(F)ccc2cc(O)cc(-c3ncc4c(N5CC6CCC(C5)N6)nc(OCC5(CN6CCC(F)CC6)CC5)nc4c3F)c12 [Example 1, 4-(4-(3,8-diazabicyclo[3.2.1]octan-3-yl)-8-fluoro-2-((1-((4-fluoropiperidin-1-yl)methyl)cyclopropyl)methoxy)pyrido[4,3-d]pyrimidin-7-yl)-5-ethynyl-6-fluoronaphthalen-2-ol]",< 100 nM,< 100 nM,< 100 nM,< 100 nM,< 100 nM,0.8%,–
[2H]C([2H])([2H])Oc1nc(-c2cc(O)cc3ccc(F)c(C#C)c23)c(F)c2nc(OCC3(CN4CC5CC5C4)CC3)nc(N3CC4CCC(C3)N4)c12 (stereo not shown) [Example 4],< 100 nM,< 100 nM,< 100 nM,< 100 nM,< 100 nM,5.4%,–
C#Cc1c(F)ccc2cc(O)cc(-c3ncc4c(N5CC6CCC(C5)N6)nc(OCC5(CN6CC7CC7C6)CC5)nc4c3F)c12 (stereo not shown) [Example 13],< 100 nM,< 100 nM,< 100 nM,< 100 nM,< 100 nM,–,1.98%
C#Cc1c(F)ccc2cc(O)cc(-c3ncc4c(N5CC6CCC(C5)N6)nc(OCC5(CN6CCC(C(F)(F)F)CC6)CC5)nc4c3F)c12 [Example 14],< 100 nM,< 100 nM,< 100 nM,< 100 nM,< 100 nM,–,5.81%
C#Cc1c(F)ccc2cc(O)cc(-c3nc(OC)c4c(N5CC6CCC(C5)N6)nc(OCC5(CN6CCC(F)CC6)CC5)nc4c3F)c12 [Example 19],< 100 nM,< 100 nM,< 100 nM,< 100 nM,< 100 nM,–,9.39%
C#Cc1c(F)ccc2cc(O)cc(-c3nc(OC(C)C)c4c(N5CC6CCC(C5)N6)nc(OCC5(CN6CCC(C(F)(F)F)CC6)CC5)nc4c3F)c12 [Example 29],< 100 nM,< 100 nM,100 to 1000 nM,< 100 nM,< 100 nM,–,–
[2H]C([2H])([2H])Oc1nc(-c2cc(O)cc3ccc(F)c(C#C)c23)c(F)c2nc(OCC3(CN4CCC(C(F)(F)F)CC4)CC3)nc(N3CC4CCC(C3)N4)c12 [Example 30],< 100 nM,< 100 nM,< 100 nM,< 100 nM,< 100 nM,–,–
C#Cc1c(F)ccc2cc(O)cc(-c3nc(OC4CC4)c4c(N5CC6CCC(C5)N6)nc(OCC5(CN6CCC(C(F)(F)F)CC6)CC5)nc4c3F)c12 [Example 31],< 100 nM,< 100 nM,100 to 1000 nM,< 100 nM,< 100 nM,–,–
C#Cc1c(F)ccc2cc(O)cc(-c3nc(OC(F)F)c4c(N5CC6CCC(C5)N6)nc(OCC5(CN6CCC(C(F)(F)F)CC6)CC5)nc4c3F)c12 [Example 32],< 100 nM,< 100 nM,100 to 1000 nM,100 to 1000 nM,< 100 nM,–,–
C#Cc1c(F)ccc2cc(O)cc(-c3nc(OC)c4c(N5CC6CCC(C5)N6)nc(OCC5(CN6CCOCC6)CC5)nc4c3F)c12 [Example 33],< 100 nM,< 100 nM,100 to 1000 nM,< 100 nM,< 100 nM,–,–
C#Cc1c(F)ccc2cc(O)cc(-c3nc(Cl)c4c(N5CC6CCC(C5)N6)nc(OCC5(CN6CCC(C(F)(F)F)CC6)CC5)nc4c3F)c12 [Example 36],< 100 nM,< 100 nM,100 to 1000 nM,< 100 nM,< 100 nM,–,–
C#Cc1c(F)ccc2cc(O)cc(-c3ncc4c(N5CC6CCC(C5)N6)nc(OCC5(CN6CC7C(C6)C7C(F)(F)F)CC5)nc4c3F)c12 (stereo not shown) [Example 37],< 100 nM,< 100 nM,100 to 1000 nM,< 100 nM,< 100 nM,–,10.6%
C#Cc1c(F)ccc2cc(O)cc(-c3nc(OC)c4c(N5CC6CCC(C5)N6)nc(OCC5(CN6CCC(C#N)C6)CC5)nc4c3F)c12 (stereo not shown) [Example 38],< 100 nM,< 100 nM,–,< 100 nM,< 100 nM,–,1.8%
C#Cc1c(F)ccc2cc(O)cc(-c3nc(C)c4c(N5CC6CCC(C5)N6)nc(OCC5(CN6CCC(C(F)(F)F)CC6)CC5)nc4c3F)c12 [Example 39],< 100 nM,< 100 nM,100 to 1000 nM,< 100 nM,< 100 nM,–,–
C#Cc1c(F)ccc2cc(O)cc(-c3nc(OC4CC4)c4c(N5CC6CCC(C5)N6)nc(OCC5(CN6CC7CC7C6)CC5)nc4c3F)c12 (stereo not shown) [Example 40],< 100 nM,< 100 nM,100 to 1000 nM,< 100 nM,< 100 nM,–,–
C#Cc1c(F)ccc2cc(O)cc(-c3nc(OC)c4c(N5CC6CCC(C5)N6)nc(OCC5(CN6CC7C(C6)C7C(F)(F)F)CC5)nc4c3F)c12 (stereo not shown) [Example 41],< 100 nM,< 100 nM,100 to 1000 nM,< 100 nM,< 100 nM,–,–
C#Cc1c(F)ccc2cc(O)cc(-c3nc(OC)c4c(N5CC6CCC(C5)N6)nc(OCC5(CN6CC(F)C(F)C6)CC5)nc4c3F)c12 (stereo not shown) [Example 42],< 100 nM,< 100 nM,100 to 1000 nM,< 100 nM,< 100 nM,–,–
C#Cc1c(F)ccc2cc(O)cc(-c3nc(OC)c4c(N5CC6CCC(C5)N6)nc(OCC5(CN6CCC7CC76)CC5)nc4c3F)c12 (stereo not shown) [Example 43],< 100 nM,< 100 nM,100 to 1000 nM,< 100 nM,< 100 nM,–,2.37%
C#Cc1c(F)ccc2cc(O)cc(-c3ncc4c(N5CC6CCC(C5)N6)nc(OCC5(CN6CC7C(C#N)C7C6)CC5)nc4c3F)c12 (stereo not shown) [Example 44],< 100 nM,< 100 nM,100 to 1000 nM,< 100 nM,< 100 nM,–,2.38%
C#Cc1c(F)ccc2cc(O)cc(-c3nc(OC)c4c(N5CC6CCC(C5)N6)nc(OCC5(CN6CC7C(C6)C7(F)F)CC5)nc4c3F)c12 (stereo not shown) [Example 49],< 100 nM,< 100 nM,–,< 100 nM,< 100 nM,–,3.82%
C#Cc1c(F)ccc2cc(O)cc(-c3nc(OC)c4c(N5CC6CCC(C5)N6)nc(OCC5(CN6CC7C(C#N)C7C6)CC5)nc4c3F)c12 (stereo not shown) [Example 51],< 100 nM,< 100 nM,–,< 100 nM,< 100 nM,–,2.3%
C#Cc1c(F)ccc2cc(O)cc(-c3ncc4c(N5CC6CCC(C5)N6C(=O)OC(C)OC(C)=O)nc(OCC5(CN6CCC(F)CC6)CC5)nc4c3F)c12 (stereo not shown) [Example 52],< 100 nM,< 100 nM,100 to 1000 nM,< 100 nM,< 100 nM,–,–
"C#Cc1c(F)ccc2cc(O)cc(-c3nc(OC)c4c(N5CC6CCC(C5)N6)nc(OCC5(CN6CCC6)CC5)nc4c3F)c12 [Ref. 2, reference compound]",< 100 nM,< 100 nM,–,100 to 1000 nM,100 to 1000 nM,0.15%,–
"C#Cc1c(F)ccc2cc(O)cc(-c3nc(OC)c4c(N5CC6CCC(C5)N6)nc(OCC5(CN6CCCC6)CC5)nc4c3F)c12 [Ref. 3, reference compound]",–,< 100 nM,–,–,–,–,0.23%
"C#Cc1c(F)ccc2cc(O)cc(-c3nc(OC)c4c(N5CC6CCC(C5)N6)nc(OCC5(CN(C)C)CC5)nc4c3F)c12 [Ref. 4, reference compound]",–,< 100 nM,–,–,–,–,0.23%

# Reference: patent US20260176290A1, “INHIBITORS OF KRAS(G12D)” (Ranok Therapeutics (Hangzhou) Co. Ltd., priority 2022, published 2026)
